From US10231456B2, “Methods and compositions for controlling weed infestation and improving grass quality” (BAYER CROPSCIENCE LP, priority 2012, dated 2019)

Tests used:
[1] = test system: Tall Fescue; test: Glasshouse post-emergence test, % damage to Tall Fescue; assay type: in vivo, tall fescue (Schedonorus phoenix/Festuca arundinacea); details: NIS 0.25 % V/V
Excerpt: Glasshouse plots approximately 1.1 m^2 in size are planted with the weed Tall Fescue. Using a 1 nozzle motorized track sprayer, thiencarbazone-methyl (BYH18636), foramsulfuron (Revolver●), and halosulfuron-methyl (Sedgehammer●) are applied on their own and in combination with each other (a combination of thiencarbazone-methyl, foramsulfuron, and halosulfuron-methyl is SP 102000025052), by post-emergence method, to the weed Tall Fescue, at the application rates specified. The application rates for each compound and combination are equivalent to each other.
After 14 and 27 days after treatment, the degree of damage to the plants is rated in % damage in comparison to the development of the untreated control.
(§1) The FIGURES denote: • 0%=no effect (like untreated control) • 100%=total destruction.

[2] = test system: dallisgrass; test: Post-emergence field plot test, % damage to natural dallisgrass infestation; assay type: in vivo, dallisgrass (Paspalum dilatatum); details: with non-ionic surfactant, rates g/ha foram 28.78, TCM 15, halo 69.9; for Trial 1 (16 WAT) % damage: 16 weeks after treatment; for Trial 2 (42 DAA) % damage: 42 days after application; for Trial 3 (48 DAA) % damage: 48 days after application
Excerpt: Plots approximately 2-4.6 m^2 in size are contain a natural infestion of the weed dallisgrass. Using a CO2 propelled backpack sprayer, thiencarbazone-methyl (TCM), foramsulfuron (foram), and halosulfuron-methyl (halo) are applied on their own and in a combination, by post-emergence method, to the dallisgrass, at the application rates specified. The application rates for each compound and combination are equivalent to each other. All treatments included a non-ionic surfactant. After 42 days, 48 days, and 16 weeks after treatment, the degree of damage to the plants is rated in % damage in comparison to the development of the untreated control.
as §1

[3] = higher rates: TCM 22.2, foram 44.37, halo 69 G A/HA (blend 135.6 G A/HA, 3.2 OZ/A)
[4] = lower rates: TCM 14.58, foram 29.12, halo 45.3 G A/HA (blend 89 G A/HA, 2.1 OZ/A)

SMILES	0 DAA % damage [1, 3] [%]	0 DAA % damage [1, 4] [%]	14 DAA % damage [1, 3] [%]	14 DAA % damage [1, 4] [%]	27 DAA % damage [1, 3] [%]	27 DAA % damage [1, 4] [%]	Trial 1 (16 WAT) % damage [2] [%]	Trial 2 (42 DAA) % damage [2] [%]	Trial 3 (48 DAA) % damage [2] [%]
COC(=O)c1csc(C)c1S(=O)(=O)NC(=O)n1nc(OC)n(C)c1=O [thiencarbazone-methyl]	0	0	42.5	26.3	75	52.5	85.25	65	51
COC(=O)c1c(Cl)nn(C)c1S(=O)(=O)NC(=O)Nc1nc(OC)cc(OC)n1 [halosulfuron-methyl]							0	0	−9
COc1cc(OC)nc(NC(=O)NS(=O)(=O)c2cc(NC=O)ccc2C(=O)N(C)C)n1 [foramsulfuron]							31.5	76.7	35
